# Reference: patent publication US8980829B2, “Aryl glycoside compound, preparation method and use thereof” (Shanghai Yingli Science and Technology Co., Ltd, priority 2011, dated 2015)
# Legend:
# [1] = tested on: C57 mice; experiment: Urinary glucose excretion test; assay type: in vivo; conditions: adult C57 mice, 10 mg/kg, 24-hours urine collection, average of 6 mice
# Procedure: Urinary Glucose Excretion Test
# Adult C57 mice administered the test compound (10 mg/kg) were placed in metabolism cages for 24-hours urine collection, and measure the total volume of urine. When the urine samples had been collected, they were immediately frozen in a −20° C. refrigerator, followed by detecting the glucose concentration in urine. Finally, the total glucose in animal urine was calculated according to the total urine volume. It was then converted into urinary glucose excretion (mg) per 200 g of body weight within 24 hours according to the weight of mice.
# [2] = molecular target: human SGLT2 (Homo sapiens (Human), UniProt P31639); experiment: Uptake assay of [14C]-AMG in Flp-In CHO cells stably expressing human SGLT2; assay type: cell-based; conditions: for IC50: [14C]-AMG uptake, Flp-In CHO cells expressing human SGLT2, 1 hour at 37° C., n = 1-4; for Selectivity (SGLT1/SGLT2): ratio SGLT1 IC50 / SGLT2 IC50;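 for all read-outs here: uptake in Na+ containing KRH buffer with compounds added in 1% DMSO, radioactivity of lysed cells read by scintillation counting, SGLT1 tested the same way in matching Flp-In CHO cells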
# [3] = molecular target: human SGLT1 (Homo sapiens (Human), UniProt P13866); experiment: Uptake assay of [14C]-AMG in Flp-In CHO cells stably expressing human SGLT1; assay type: cell-based; conditions: [14C]-AMG uptake, Flp-In CHO cells expressing human SGLT1, 1 hour at 37° C., n = 1-4;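 note: uptake run in sodium-containing KRH buffer with compounds added in DMSO (1% final), cell radioactivity read by scintillation counting after lysis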
# Chain of human SGLT1 (P13866 whole entry): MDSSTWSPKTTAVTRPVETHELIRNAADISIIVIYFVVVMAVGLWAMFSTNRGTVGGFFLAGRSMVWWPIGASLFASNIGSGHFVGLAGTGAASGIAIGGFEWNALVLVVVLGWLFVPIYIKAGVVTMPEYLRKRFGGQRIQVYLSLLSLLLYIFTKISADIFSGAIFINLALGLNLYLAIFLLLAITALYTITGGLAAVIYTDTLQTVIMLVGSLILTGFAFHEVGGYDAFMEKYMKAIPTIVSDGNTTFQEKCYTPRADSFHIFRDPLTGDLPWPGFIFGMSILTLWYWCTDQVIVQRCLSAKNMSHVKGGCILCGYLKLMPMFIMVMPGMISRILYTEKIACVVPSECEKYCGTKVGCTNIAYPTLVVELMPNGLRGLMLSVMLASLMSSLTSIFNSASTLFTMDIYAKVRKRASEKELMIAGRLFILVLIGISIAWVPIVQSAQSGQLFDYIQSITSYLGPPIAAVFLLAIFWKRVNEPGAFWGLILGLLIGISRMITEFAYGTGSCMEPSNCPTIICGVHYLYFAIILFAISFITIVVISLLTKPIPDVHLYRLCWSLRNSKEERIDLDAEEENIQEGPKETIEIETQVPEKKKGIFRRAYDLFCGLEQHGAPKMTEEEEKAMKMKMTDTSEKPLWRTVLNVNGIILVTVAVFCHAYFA
# Chain of human SGLT2 (P31639 whole entry): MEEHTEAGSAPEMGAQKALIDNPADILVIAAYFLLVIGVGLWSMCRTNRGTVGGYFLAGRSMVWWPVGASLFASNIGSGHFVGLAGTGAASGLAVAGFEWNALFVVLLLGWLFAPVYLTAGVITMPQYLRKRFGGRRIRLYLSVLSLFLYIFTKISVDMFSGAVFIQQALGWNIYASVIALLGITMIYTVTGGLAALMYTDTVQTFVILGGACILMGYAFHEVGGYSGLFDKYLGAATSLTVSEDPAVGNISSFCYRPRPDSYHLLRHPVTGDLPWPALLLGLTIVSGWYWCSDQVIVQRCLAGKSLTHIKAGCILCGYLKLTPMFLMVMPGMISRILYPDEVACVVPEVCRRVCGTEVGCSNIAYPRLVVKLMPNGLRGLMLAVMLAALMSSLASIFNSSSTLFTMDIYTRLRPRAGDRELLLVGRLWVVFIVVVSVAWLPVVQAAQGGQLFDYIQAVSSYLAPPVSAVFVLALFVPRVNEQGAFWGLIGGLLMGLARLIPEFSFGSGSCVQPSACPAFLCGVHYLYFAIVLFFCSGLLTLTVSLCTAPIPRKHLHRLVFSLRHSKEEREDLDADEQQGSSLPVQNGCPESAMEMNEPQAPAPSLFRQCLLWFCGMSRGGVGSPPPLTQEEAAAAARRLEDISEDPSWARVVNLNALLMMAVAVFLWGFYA
Compound,Urine Glucose Excretion (mg/200 g BW/24 h) [1] [mg/200 g BW/24 h],IC50 [2] [nM],Selectivity (SGLT1/SGLT2) [2],IC50 [3] [nM]
"OC[C@H]1O[C@@H](c2ccc(Cl)c(Cc3ccc(OC4CCOC4)cc3)c2)[C@H](O)[C@@H](O)[C@@H]1O (some centres unmarked) [EMPAGLIFLOZIN, reference compound]",1197,–,–,–
OC[C@H]1O[C@@H](c2ccc(Cl)c(Cc3ccc(OCCC4COC4)cc3)c2)[C@H](O)[C@@H](O)[C@@H]1O [Compound 8],–,1.7,547,930
OC[C@H]1O[C@@H](c2ccc(Cl)c(Cc3ccc(CC4COC4)cc3)c2)[C@H](O)[C@@H](O)[C@@H]1O [Compound 6],735,9.6,312,3000
OC[C@H]1O[C@@H](c2ccc(Cl)c(Cc3ccc(CCC4COC4)cc3)c2)[C@H](O)[C@@H](O)[C@@H]1O [Compound 7],–,8.5,124,1060
OC[C@H]1O[C@@H](c2ccc(Cl)c(Cc3ccc(OCCC4(F)COC4)cc3)c2)[C@H](O)[C@@H](O)[C@@H]1O [Compound 9],1079,7.5,159,1190
CCOc1ccc(Cc2cc([C@@H]3O[C@H](CO)[C@@H](O)[C@H](O)[C@H]3O)c(OCC3(F)COC3)cc2Cl)cc1 [Compound 24],–,12,1424,17100
[O-][S+]1CC(CCOc2ccc(Cc3cc([C@@H]4O[C@H](CO)[C@@H](O)[C@H](O)[C@H]4O)ccc3Cl)cc2)C1 (some centres unmarked) [Compound 11],–,6.8,150,1020
OC[C@H]1O[C@@H](c2ccc(Cl)c(Cc3ccc(OCCCC4(F)COC4)cc3)c2)[C@H](O)[C@@H](O)[C@@H]1O [Compound 23],1198,1.1,1089,1200
CCOc1ccc(Cc2cc([C@@H]3O[C@H](CO)[C@@H](O)[C@H](O)[C@H]3O)c(OCC3CNC3)cc2Cl)cc1 [Compound 26],–,69.4,28,1950
OC[C@H]1O[C@@H](c2ccc(Cl)c(Cc3ccc(OCC4CNC4)cc3)c2)[C@H](O)[C@@H](O)[C@@H]1O [Compound 14],–,8.4,93,785
"OC[C@H]1O[C@@H](c2ccc(Cl)c(Cc3ccc(OCC4CCO4)cc3)c2)[C@H](O)[C@@H](O)[C@@H]1O (single isomer, unassigned) [Compound 3]",–,11.4,201,2290
"OC[C@H]1O[C@@H](c2ccc(Cl)c(Cc3ccc(OCC4CCO4)cc3)c2)[C@H](O)[C@@H](O)[C@@H]1O (single isomer, unassigned) [Compound 4]",–,4.9,295,1450
OC[C@H]1O[C@@H](c2ccc(Cl)c(Cc3ccc(OCC4COC4)cc3)c2)[C@H](O)[C@@H](O)[C@@H]1O [Compound 1],1333,5.6,471,2640
OC[C@H]1O[C@@H](c2ccc(Cl)c(Cc3ccc(OCC4(CF)COC4)cc3)c2)[C@H](O)[C@@H](O)[C@@H]1O [Compound 20],751,3.7,690,2550
OC[C@H]1O[C@@H](c2ccc(Cl)c(Cc3ccc(OCC4CN(c5ccc(F)cc5)C4)cc3)c2)[C@H](O)[C@@H](O)[C@@H]1O [Compound 19],–,97.2,21,1990
OC[C@H]1O[C@@H](c2ccc(Cl)c(Cc3ccc(OCC4(F)COC4)cc3)c2)[C@H](O)[C@@H](O)[C@@H]1O [Compound 12],1323,6.5,320,2080
OC[C@H]1O[C@@H](c2ccc(Cl)c(Cc3ccc(OCCC4CSC4)cc3)c2)[C@H](O)[C@@H](O)[C@@H]1O [Compound 10],740,7.4,176,1300
CCOc1ccc(Cc2cc([C@@H]3O[C@H](CO)[C@@H](O)[C@H](O)[C@H]3O)c(OCCCC3(F)COC3)cc2Cl)cc1 [Compound 25],–,12.3,1559,18800
"OC[C@H]1O[C@@H](c2ccc(Cl)c(Cc3ccc(OCC4CCO4)cc3)c2)[C@H](O)[C@@H](O)[C@@H]1O (single isomer, unassigned) [Compound 2]",–,8.7,188,1640
OC[C@H]1O[C@@H](c2ccc(Cl)c(Cc3ccc(OCCCC4COC4)cc3)c2)[C@H](O)[C@@H](O)[C@@H]1O [Compound 22],–,1.7,2911,4950
CC(C)(C)OC(=O)N1CC(COc2ccc(Cc3cc([C@@H]4O[C@H](CO)[C@@H](O)[C@H](O)[C@H]4O)ccc3Cl)cc2)C1 [Compound 13],–,28.7,96,2760
CC(=O)N1CC(COc2ccc(Cc3cc([C@@H]4O[C@H](CO)[C@@H](O)[C@H](O)[C@H]4O)ccc3Cl)cc2)C1 [Compound 17],180,6.4,73,469
CN1CC(COc2ccc(Cc3cc([C@@H]4O[C@H](CO)[C@@H](O)[C@H](O)[C@H]4O)ccc3Cl)cc2)C1 [Compound 15],–,23.6,62,1460
OC[C@H]1O[C@@H](c2ccc(Cl)c(Cc3ccc(CC4(F)COC4)cc3)c2)[C@H](O)[C@@H](O)[C@@H]1O [Compound 16],1441,8.1,306,2480
CC1(COc2ccc(Cc3cc([C@@H]4O[C@H](CO)[C@@H](O)[C@H](O)[C@H]4O)ccc3Cl)cc2)COC1 [Compound 5],1050,8.3,95,792
OC[C@H]1O[C@@H](c2ccc(Cl)c(Cc3ccc(OCC4CN(C5COC5)C4)cc3)c2)[C@H](O)[C@@H](O)[C@@H]1O [Compound 18],–,22,111,2450
